In patent US11549147B2, “Treatment of atopic dermatitis with tradipitant” (VANDA PHARMACEUTICALS INC., priority 2017, dated 2023):
Values joined by “and” are separate entries in the source; they are usually repeats but may differ in a detail not shown here. Identical values can stand only once.

Columns and labels:
Assay type in all cases: in vivo, human
[1] = Plasma levels of tradipitant at time of efficacy evaluation, PK analysis (Example 1); conditions: 100 mg qd
Protocol: Baseline VAS scores are 76.1 and 77.2 for the tradipitant and placebo arms respectively. Efficacy is evaluated through a number of clinical research instruments. In addition, at the time of efficacy evaluation blood samples are collected for PK analysis in order to determine the plasma levels of tradipitant.
The average plasma concentrations of tradipitant across AM and PM-evaluated patients are between about 125 ng/mL and about 225 ng/mL. Patients evaluated in the afternoons (PM) (mean=about 20 hours post last administration) tend to have lower plasma concentrations of tradipitant than patients evaluated in the mornings (AM) (mean=about 15 hours post last administration). The average plasma concentration in the PM group is about 125 ng/mL, and the average plasma concentration in the AM group is about 225 ng/mL, the difference being largely attributable to the length of time post-administration.

[2] = Plasma concentration levels of tradipitant in healthy subjects (Example 2)
Protocol: A study is conducted in which healthy subject participants are orally administered 85 mg tradipitant on study day 3, and then 85 mg tradipitant Q12H on study days 4-16. Plasma concentration levels of tradipitant are measured on each of day 3, day 7, and day 11.
This study illustrates that administration of 85 mg tradipitant qd (on day 3) produces an average plasma concentration over hours 0-12 that is about 50% of the plasma concentration observed in the PM group in Example 1. On days 7 and 11, the average plasma concentration over hours 0-12 following administration of 85 mg bid (specifically, Q12H) tradipitant is about 150% of the plasma concentration observed in the PM group in Example 1. The average plasma concentration over hours 0-12 at each point is determined by dividing the AUC for hours 0-12 (in (hr.)×(ng/mL)) by 12 hours.

[3] = tested on: chronic pruritus associated with atopic dermatitis; assay: Phase II randomized double-blind placebo-controlled study NCT02651714 (Example 3); parameters: key to average itch VAS, difference / worst itch VAS, difference: VAS in mm, 0-100 mm scale; key to Average Itch VAS / worst Itch VAS: change in VAS, mm on 0-100 mm scale; CGI-C / SKINDEX-16 / Worst Itch NRS Night / worst itch NRS night, difference / CGIC, difference: scale not given here
Protocol: A phase II, multicenter, randomized, double-blind, placebo-controlled clinical study (“Tradipitant in Treatment-resistant Pruritus Associated with Atopic Dermatitis,” clinicaltrials.gov Study ID NCT02651714) is conducted to determine the efficacy of tradipitant relative to placebo in reducing chronic pruritus as measured by the VAS.
Inclusion criteria for the study include chronic (≥6 weeks) itch related to AD that is refractory to treatment by patient history, average itch score by VAS of ≥70 mm (out of 100 mm), verbal response score (VRS) of ≥3 on at least one of the past three days prior to randomization, and a SCORAD of <80.
Patients are randomized to receive either 85 mg of tradipitant or placebo (1:1) bid. The design for the randomized, placebo-controlled, double-blind study is depicted in FIG. 3. Individuals with chronic pruritus associated with AD are administered 85 mg of tradipitant bid or placebo for eight weeks. Average itch severity and worst itch severity are assessed by VAS, and VRS is assessed every two weeks. In addition, treatment is assessed biweekly using both the objective and subjective SCORing Atopic Dermatitis (SCORAD) Index (Severity Scoring of Atopic Dermatitis: The SCORAD Index, Consensus Report of the European Task Force on Atopic Dermatitis, Dermatology 1993; 186:23-31) and the Eczema Area and Severity Index (EASI) (Hanifin et al., The eczema area and severity index (EASI): assessment of reliability in atopic dermatitis, Experimental Dermatology 10(1):11-18 (2001)). The Clinical Global Impressions of Change (CGI-C) scale, the Patient Global Impression of Change (PGIC) scale with respect to both itch and AD, the Patient Benefit Index (PBI), and SKINDEX-16 scales are also used for assessments. Twice daily questionnaires are completed to report worst and average itch by numeric rating scale (NRS).
The objective SCORAD assessment includes parameters including extension, intensity, excoriations, erythema, oozing or crusting, the presence of edema or papules, lichenification, and skin dryness. The subjective SCORAD assessment includes patient assessments of itch and insomnia.

[4] = tested on: responders and non-responders to tradipitant treatment of atopic dermatitis; assay: Association analysis of genetic markers with VAS response to tradipitant treatment (Example 6, Tables 10-11)
Protocol: A further study is performed to identify additional genetic markers that correlate directly with a positive response to tradipitant treatment. To identify the genetic markers, an association analysis is conducted using a logistic additive model. Visual Analog Scale (VAS) is used as the response outcome metric. The identified variants are shown below in Table 10.
Using the top significant SNPs chosen by p-value cutoff, individuals are classified on responder status to tradipitant treatment, with AUC of 0.95 (10 fold cross validation). Loss of function (LOF) and protein coding variants are investigated in terms of VAS outcomes on the cohort of cases.

[5] = tested on: change of Worst Itch (VAS) in patients suffering from atopic dermatitis; assay: INADL variants modifying change of Worst Itch (VAS) in the treated cohort (Example 6, Table 12)
Text: In addition, within the treated cohort described herein in Example 4, Table 6, the top loci identified as modifying change of Worst Itch (VAS) are variants located within INADL gene, shown below in Table 12.

[6] = ITT population, 85 mg bid, week 8
[7] = categorical, ITT, 85 mg bid, week 8
[8] = difference tradipitant vs placebo, 85 mg bid, week 8

O=C(c1ccccc1Cl)c1cccnc1-c1nnn(Cc2cc(C(F)(F)F)cc(C(F)(F)F)c2)c1-c1ccncc1 [Tradipitant]
average plasma concentration ([1]; AM group, mean about 15 hours post last administration): about 225 ng/mL | plasma concentration at which patients tend to show greater efficacy ([1]; PK-efficacy correlation): > 100 ng/mL | average plasma concentration ([1]; PM group, mean about 20 hours post last administration): about 125 ng/mL | average plasma concentration over hours 0-12 relative to the PM group in Example 1 ([2]; 85 mg bid (Q12H), days 7 and 11): about 150% | average plasma concentration over hours 0-12 relative to the PM group in Example 1 ([2]; 85 mg qd, day 3): about 50% | time at which treatment effects in both itch and disease severity are evident ([3]; 85 mg bid): 2 Week | clinical features of severity of atopic dermatitis, including excoriation, erythema, oozing and dryness ([3]; 85 mg bid vs placebo): significant improvements | Average Itch VAS [3, 6]: −41.5 | CGI-C [3, 6]: 2.6 | PBI [3, 6]: 1.7 and 1.72 | PGI-C AD [3, 6]: 2.7 and 2.74 | PGI-C Itch [3, 6]: 2.6 and 2.56 | SKINDEX-16 [3, 6]: −34.8 | Worst Itch NRS Night [3, 6]: −3.4 | Worst itch NRS day [3, 6]: −3.3 | worst Itch VAS [3, 6]: −44.2 | Worst itch VAS ≥30 (responders) ([3]; categorical, ≥30 points improvement from baseline, ITT, 85 mg bid, week 8): 56.60% | Worst itch VAS ≥40 (responders) ([3]; categorical, ≥40 points improvement from baseline, ITT, 85 mg bid, week 8): 52.6% | EASI ≥75% (patients with 75% or greater improvement) [3, 7]: 21.1% | SCORAD ≥50% (patients with 50% or greater improvement) [3, 7]: 44.0% | CGIC, difference [3, 8]: −0.7 | EASI ≥75%, difference [3, 8]: 10.0% | PBI, difference [3, 8]: 0.48 | PGIC AD, difference [3, 8]: −0.71 | PGIC itch, difference [3, 8]: −0.6 | SCORAD total, difference [3, 8]: −7.68 | SCORAD ≥50%, difference [3, 8]: 23.2% | average itch VAS, difference [3, 8]: −5.7 | objective SCORAD, difference [3, 8]: −6.1 | subjective SCORAD, difference [3, 8]: −1.43 | worst itch NRS day, difference [3, 8]: −0.81 | worst itch NRS night, difference [3, 8]: −1.05 | worst itch VAS (≥40), difference [3, 8]: 17.9% | worst itch VAS, difference [3, 8]: −13.6 | response to tradipitant treatment of atopic dermatitis by genotype ([4]; CTNNA3 rs57930837 AA genotype): a majority of rs57930837 AA individuals do not respond to treatment | response to tradipitant treatment of atopic dermatitis by genotype ([4]; CTNNA3 rs57930837 CA genotype): a majority of individuals having a CA rs57930837 genotype respond to treatment | response to tradipitant treatment of atopic dermatitis by genotype ([4]; CTNNA3 rs57930837 CC genotype): all individuals having a CC rs57930837 genotype respond to treatment | Genotype associated with worse Worst Itch (VAS) response ([5]; INADL SNP rs370530530, minor allele CT, major allele C, treated cohort): CTCT | response as measured by change of Worst Itch (VAS), by genotype ([5]; INADL rs11207834 TT genotype): itch scale improvement | response as measured by change of Worst Itch (VAS), by genotype ([5]; INADL rs11207834 minor allele, 85 mg bid): decreased response to treatment
